Measurements from patent US4292317A, “1,4-Dihydro-quinoline-3-carboxylic acid derivatives, process for their preparation and compositions containing them” (Laboratorie Roger Bellon, priority 1977, dated 1981).
In brackets after ≈: the same amount, converted by molar mass.

What was measured:
Assay type in all cases: cell-based
[1] = test system: Salm. typhi 0901; experiment: microbe, parasite or virus in culture; settings: Salmonella enterica, 18 h; Table III; Salm. typhi 0901
Method: (§1) After sterilisation at 120° C., the pH was 6.8.
(§2) The minimum inhibitory concentrations (M.I.C.) were determined by dilution of the test compounds in this mixture, the concentration ranging from 0.05 to 100 μg/cm^3 in a geometric progression with a factor of 2.
(§3) The inoculation of the dishes was carried out by means of a multiple inoculator with 10^-3 dilutions of 18 hour old broth cultures.
(§4) The dishes were placed in an oven at 37° C. and the readings were taken afer an incubation time of 18 hours. The M.I.C. was taken as the lowest concentration which inhibited a culture.

[2] = test system: B. subtilis; experiment: M.I.C. in vitro, nutrient agar dilution; settings: Bacillus subtilis, 18 h; Table III; B. Subtilis; read-out: M.I.C.
Method: as §1, §2, §3, §4

[3] = test system: Klebs. pneum. 10.031; experiment: M.I.C. in vitro, nutrient agar dilution; settings: 18 h; Table III; Klebs. pneum. 10.031; read-out: M.I.C.
Method: as §1, §2, §3, §4

[4] = test system: Strepto D.M. 19; experiment: M.I.C. in vitro, nutrient agar dilution; settings: 18 h; Table III; Strepto D.M. 19; read-out: M.I.C.
Method: as §1, §2, §3, §4

[5] = test system: Staph. 209 P; experiment: M.I.C. in vitro, nutrient agar dilution; settings: 18 h; Table III; Staph. 209 P; read-out: M.I.C.
Method: as §1, §2, §3, §4

[6] = test system: Serratia; experiment: M.I.C. in vitro, nutrient agar dilution; settings: 18 h, Table III, read-out: M.I.C.
Method: as §1, §2, §3, §4

[7] = test system: S. oranienburg 1066; experiment: M.I.C. in vitro, nutrient agar dilution; settings: Salmonella enterica, 18 h; Table III; S. oranienburg 1066; read-out: M.I.C.
Method: as §1, §2, §3, §4

[8] = test system: Pr. morganii A.236; experiment: M.I.C. in vitro, nutrient agar dilution; settings: Morganella morganii, 18 h; Table III; Pr. morganii A. 236; read-out: M.I.C.
Method: as §1, §2, §3, §4

[9] = test system: Sh. sonnei I.P.S.; experiment: M.I.C. in vitro, nutrient agar dilution; settings: Shigella sonnei, 18 h; Table III; Sh. sonnei I.P.S.; read-out: M.I.C.
Method: as §1, §2, §3, §4

[10] = test system: Esch. coli 95 I.S.M.; experiment: M.I.C. in vitro, nutrient agar dilution; settings: Escherichia coli, 18 h; Table III; Esch. coli 95 I.S.M.; read-out: M.I.C.
Method: as §1, §2, §3, §4

[11] = test system: Ps. aeruginosa A.22; experiment: M.I.C. in vitro, nutrient agar dilution; settings: Pseudomonas aeruginosa, 18 h; Table III; Ps. aeruginosa A.22; read-out: M.I.C.
Method: as §1, §2, §3, §4

[12] = test system: Pr. vulgaris 12-53; experiment: M.I.C. in vitro, nutrient agar dilution; settings: Proteus vulgaris, 1253, 18 h; Table III; Pr. vulgaris 12-53; read-out: M.I.C.
Method: as §1, §2, §3, §4

[13] = test system: Pr. mirabilis Nig; experiment: M.I.C. in vitro, nutrient agar dilution; settings: Proteus mirabilis, 18 h; Table III; Pr. mirabilis Nig; read-out: M.I.C.
Method: as §1, §2, §3, §4

[14] = test system: Bord. bronchis. 4.617; experiment: M.I.C. in vitro, nutrient agar dilution; settings: 18 h; Table III; Bord. bronchis. 4.617; read-out: M.I.C.
Method: as §1, §2, §3, §4

[15] = test system: S. enteritidis Danysz; experiment: M.I.C. in vitro, nutrient agar dilution; settings: Salmonella enterica, 18 h; Table III; S. enteritidis Danysz; read-out: M.I.C.
Method: as §1, §2, §3, §4

[16] = test system: Esch. coli 111 B4; experiment: M.I.C. in vitro, nutrient agar dilution; settings: Escherichia coli, 18 h; Table III; Esch. coli 111 B4
Method: as §1, §2, §3, §4

[17] = test system: Esch. coli 54.127 O.M.S.; experiment: M.I.C. in vitro, nutrient agar dilution; settings: Escherichia coli, 18 h; Table III; Esch. coli 54.127 O.M.S.; read-out: M.I.C.
Method: as §1, §2, §3, §4

[18] = test system: Staph. 9.144; experiment: M.I.C. in vitro, nutrient agar dilution; settings: 18 h; Table III; Staph. 9.144; read-out: M.I.C.
Method: as §1, §2, §3, §4

[19] = test system: Ps. aeruginosa 72.345; experiment: M.I.C. in vitro, nutrient agar dilution; settings: Pseudomonas aeruginosa, 18 h; Table III; Pd. aeruginosa 72.345; read-out: M.I.C.
Method: as §1, §2, §3, §4

[20] = test system: Providentia 0223; experiment: M.I.C. in vitro, nutrient agar dilution; settings: 18 h; Table III; Providentia 0223; read-out: M.I.C.
Method: as §1, §2, §3, §4

[21] = test system: Arizona 6.211; experiment: M.I.C. in vitro, nutrient agar dilution; settings: 18 h; Table III; Arizona 6.211; read-out: M.I.C.
Method: as §1, §2, §3, §4

[22] = test system: Strepto A 561; experiment: M.I.C. in vitro, nutrient agar dilution; settings: 18 h; Table III; Strepto A 561
Method: as §1, §2, §3, §4

Work on `C=Cn1cc(C(=O)O)c(=O)c2cc(F)c(N3CCN(C)CC3)cc21` [Example 41, 6-Fluoro-7-(4-methyl-piperazinyl)-4-oxo-1-vinyl-1,4-dihydro-quinoline-3-carboxylic acid] yielded an MIC [1] of 0.1 µg/mL (≈ 0.302 µM), an MIC [2] of 0.1 µg/mL (≈ 0.302 µM) and an MIC [3] of 0.1 µg/mL (≈ 0.302 µM). The MIC [4] was 3.1 µg/mL (≈ 9.36 µM), the MIC [5] was 0.1 µg/mL (≈ 0.302 µM) and the MIC [6] was 0.4 µg/mL (≈ 1.21 µM). It also gave an MIC [7] of 1.6 µg/mL (≈ 4.83 µM), an MIC [8] of 0.05 µg/mL (≈ 0.151 µM) and an MIC [9] of 0.1 µg/mL (≈ 0.302 µM). The MIC [10] was 0.1 µg/mL (≈ 0.302 µM), the MIC [11] was 0.4 µg/mL (≈ 1.21 µM) and the MIC [12] was 0.05 µg/mL (≈ 0.151 µM). The MIC [13] was 0.05 µg/mL (≈ 0.151 µM), the MIC [14] was 1.6 µg/mL (≈ 4.83 µM) and the MIC [15] was 0.1 µg/mL (≈ 0.302 µM). For the same compound, the MIC [16] was 0.1 µg/mL (≈ 0.302 µM), the MIC [17] was 0.1 µg/mL (≈ 0.302 µM) and the MIC [18] was 0.2 µg/mL (≈ 0.604 µM). The MIC [19] was 0.8 µg/mL (≈ 2.41 µM), the MIC [20] was 0.8 µg/mL (≈ 2.41 µM) and the MIC [21] was 0.1 µg/mL (≈ 0.302 µM). The MIC [22] was 12.5 µg/mL (≈ 37.7 µM).
`C=Cn1cc(C(=O)O)c(=O)c2cc(F)c(N3CCOCC3)cc21` [Example 42, 6-Fluoro-7-morpholino-4-oxo-1-vinyl-1,4-dihydro-quinoline-3-carboxylic acid] gave an MIC [1] of 0.8 µg/mL (≈ 2.51 µM), an MIC [2] of 0.2 µg/mL (≈ 0.628 µM) and an MIC [3] of 0.8 µg/mL (≈ 2.51 µM). The MIC [4] was 12.5 µg/mL (≈ 39.3 µM), the MIC [5] was 0.8 µg/mL (≈ 2.51 µM) and the MIC [6] was 3.1 µg/mL (≈ 9.74 µM). It also gave an MIC [7] of 100 µg/mL (≈ 314 µM), an MIC [8] of 0.2 µg/mL (≈ 0.628 µM) and an MIC [9] of 0.8 µg/mL (≈ 2.51 µM). For the same compound, the MIC [10] was 0.8 µg/mL (≈ 2.51 µM), the MIC [11] was 3.1 µg/mL (≈ 9.74 µM) and the MIC [12] was 0.8 µg/mL (≈ 2.51 µM). It also gave an MIC [13] of 1.6 µg/mL (≈ 5.03 µM), an MIC [14] of 12.5 µg/mL (≈ 39.3 µM) and an MIC [15] of 1.6 µg/mL (≈ 5.03 µM). The MIC [16] was 0.8 µg/mL (≈ 2.51 µM), the MIC [17] was 0.8 µg/mL (≈ 2.51 µM) and the MIC [18] was 1.6 µg/mL (≈ 5.03 µM). For the same compound, the MIC [19] was 6.2 µg/mL (≈ 19.5 µM), the MIC [20] was 25 µg/mL (≈ 78.5 µM) and the MIC [21] was 0.8 µg/mL (≈ 2.51 µM). For the same compound, the MIC [22] was 25 µg/mL (≈ 78.5 µM).
